Reference: patent US20240158446A1, “CYCLIC COMPOUND HAVING SELECTIVE INHIBITORY ACTION ON KRAS OVER HRAS AND NRAS” (CHUGAI SEIYAKU KABUSHIKI KAISHA, priority 2021, published 2024)

What was measured:
[1] = target: GDP-bound HRAS wild-type protein (Homo sapiens, UniProt P01112); test: Binding to HRAS by surface plasmon resonance (SPR), Single Cycle Kinetics; conditions: SPR, GDP-bound HRAS wild-type protein vs GDP-bound KRAS wild-type protein
[2] = target: GDP-bound NRAS wild-type protein (Homo sapiens, UniProt P01111); test: Binding to NRAS by surface plasmon resonance (SPR), Single Cycle Kinetics; conditions: SPR, GDP-bound NRAS wild-type protein vs GDP-bound KRAS wild-type protein
[3] = target: GDP-bound KRAS wild-type protein (Homo sapiens, UniProt P01116); test: Binding to KRAS by surface plasmon resonance (SPR), Single Cycle Kinetics; conditions: SPR Single Cycle Kinetics, GDP-bound KRAS wild-type protein, 1:1 binding model; read-out: KRAS KD
Sequence of GDP-bound KRAS wild-type protein (P01116 whole entry): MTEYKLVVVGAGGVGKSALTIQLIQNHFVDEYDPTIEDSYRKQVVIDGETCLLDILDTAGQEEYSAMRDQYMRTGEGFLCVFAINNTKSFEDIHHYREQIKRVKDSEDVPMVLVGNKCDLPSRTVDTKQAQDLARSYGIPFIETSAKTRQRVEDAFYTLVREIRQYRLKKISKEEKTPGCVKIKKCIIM

Sequence of GDP-bound HRAS wild-type protein (P01112 whole entry): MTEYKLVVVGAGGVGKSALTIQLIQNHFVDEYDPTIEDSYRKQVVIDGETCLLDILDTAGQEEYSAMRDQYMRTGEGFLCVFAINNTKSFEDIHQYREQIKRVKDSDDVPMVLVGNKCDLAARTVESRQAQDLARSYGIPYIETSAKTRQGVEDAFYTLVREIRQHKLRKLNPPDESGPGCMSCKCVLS
Sequence of GDP-bound NRAS wild-type protein (P01111 whole entry): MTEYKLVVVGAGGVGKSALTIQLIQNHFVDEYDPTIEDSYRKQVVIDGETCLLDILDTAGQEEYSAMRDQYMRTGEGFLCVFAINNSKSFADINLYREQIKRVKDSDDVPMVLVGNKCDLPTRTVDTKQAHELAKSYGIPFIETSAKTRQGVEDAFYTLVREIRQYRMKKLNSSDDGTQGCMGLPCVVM

| SMILES | HRAS/KRAS (ratio of KD value with respect to HRAS to KD value with respect to KRAS) [1] | NRAS/KRAS (ratio of KD value with respect to NRAS to KD value with respect to KRAS) [2] | Kd [3] |
| --- | --- | --- | --- |
| CC[C@H](C)[C@@H]1NC(=O)[C@H](CC(C)C)N(C)C(=O)C[C@@H](C(=O)N2CCOCC2)N(C)C(=O)[C@H](C2CCCC2)N(C)C(=O)C2(CCCC2)NC(=O)[C@@H]2CCCN2C(=O)[C@H](CCc2ccc(C(F)(F)F)c(Cl)c2)NC(=O)CN(C)C(=O)[C@H](Cc2ccc(F)cc2)N2CCCCC[C@@H](C2=O)N(C)C(=O)CN(C)C1=O [PP0612] | B (a compound having 3 or more and less than 10 is denoted as B) | B (a compound having 3 or more and less than 10 is denoted as B) | 0.39 nM |
| CC[C@H](C)[C@@H]1NC(=O)[C@H](CC(C)C)N(C)C(=O)C[C@@H](C(=O)N2CCOCC2)N(C)C(=O)[C@H](C2CCCC2)N(C)C(=O)C2(CCCC2)NC(=O)[C@@H]2CCCN2C(=O)[C@H](CCc2ccc(C(F)(F)F)c(Cl)c2)NC(=O)CN(C)C(=O)[C@H](Cc2ccc(Cl)cc2)N2CCCCC[C@@H](C2=O)N(C)C(=O)CN(C)C1=O [PP0613] | B (a compound having 3 or more and less than 10 is denoted as B) | B (a compound having 3 or more and less than 10 is denoted as B) | 0.6 nM |
| CC[C@H](C)[C@@H]1NC(=O)[C@H](CC(C)C)N(C)C(=O)C[C@@H](C(=O)N2CCOCC2)N(C)C(=O)[C@H](C2CCCC2)N(C)C(=O)C2(CCCC2)NC(=O)[C@@H]2CCCN2C(=O)[C@H](CCc2ccc(C(F)(F)F)c(Cl)c2)NC(=O)CN(C)C(=O)[C@H](Cc2ccc(OC)cc2)N2CCCCC[C@@H](C2=O)N(C)C(=O)CN(C)C1=O [PP0614] | B (a compound having 3 or more and less than 10 is denoted as B) | B (a compound having 3 or more and less than 10 is denoted as B) | 1.1 nM |
| CC[C@H](C)[C@@H]1NC(=O)[C@H](CC(C)C)N(C)C(=O)C[C@@H](C(=O)N2CCOCC2)N(C)C(=O)[C@H](C2CCCC2)N(C)C(=O)C2(CCCC2)NC(=O)[C@@H]2CCCN2C(=O)[C@H](CCc2ccc(C(F)(F)F)c(Cl)c2)NC(=O)CN(C)C(=O)[C@H](Cc2ccc(OC(F)(F)F)cc2)N2CCCCC[C@@H](C2=O)N(C)C(=O)CN(C)C1=O [PP0615] | B (a compound having 3 or more and less than 10 is denoted as B) | B (a compound having 3 or more and less than 10 is denoted as B) | 6.2 nM |
| CC[C@H](C)[C@@H]1NC(=O)[C@@H](CC(C)C)N(C)C(=O)C[C@@H](C(=O)N(C)C)N(C)C(=O)[C@@H](C2CCCC2)N(C)C(=O)C2(CCCC2)NC(=O)[C@@H]2CCCN2C(=O)[C@H](CCc2ccc(C(F)(F)F)c(Cl)c2)NC(=O)CN(C)C(=O)[C@@H](Cc2ccc(C)cc2)N2CC/C=C\CCN(CC2=O)C(=O)CN(C)C1=O [PP0618] | C (A compound having a KD ratio of 0.1 or more and less than 3 is denoted as C) | C (A compound having a KD ratio of 0.1 or more and less than 3 is denoted as C) | 6.2 nM |
| CC[C@H](C)[C@@H]1NC(=O)[C@H](CC(C)C)N(C)C(=O)C[C@@H](C(=O)N(C)C)N(C)C(=O)[C@H](C2CCCC2)N(C)C(=O)C2(CCCC2)NC(=O)[C@@H]2CCCN2C(=O)[C@H](CCc2ccc(C(F)(F)F)c(Cl)c2)NC(=O)CN(C)C(=O)[C@H](Cc2ccc(C(F)(F)F)cc2)N2CC/C=C\COC[C@@H](C2=O)N(C)C(=O)CN(C)C1=O [PP0622] | B (a compound having 3 or more and less than 10 is denoted as B) | B (a compound having 3 or more and less than 10 is denoted as B) | 11 nM |
| CCO[C@@H]1C[C@H]2C(=O)NC3(CCC3)C(=O)N(C)[C@@H](C3CCCC3)C(=O)N(CC)[C@H](C(=O)N(C)C)CC(=O)N(C)[C@@H](CC)C(=O)N[C@@H]([C@@H](C)CC)C(=O)N(C)CC(=O)N(C)[C@H]3CCCCCN(C3=O)[C@@H](Cc3ccc(C(F)(F)F)cc3)C(=O)N(C)CC(=O)N[C@@H](CCc3cc(F)c(C(F)(F)F)c(F)c3)C(=O)N2C1 [PP0633] | B (a compound having 3 or more and less than 10 is denoted as B) | B (a compound having 3 or more and less than 10 is denoted as B) | 2.3 nM |
| CCO[C@@H]1C[C@H]2C(=O)NC3(CCC3)C(=O)N(C)[C@@H](C3CCCC3)C(=O)N(CCC3CCC3)[C@H](C(=O)N(C)C)CC(=O)N(C)[C@@H](CC)C(=O)N[C@@H]([C@@H](C)CC)C(=O)N(C)CC(=O)N(C)[C@H]3CCCCCN(C3=O)[C@@H](Cc3ccc(C(F)(F)F)cc3)C(=O)N(C)CC(=O)N[C@@H](CCc3cc(F)c(C(F)(F)F)c(F)c3)C(=O)N2C1 [PP0635] | B (a compound having 3 or more and less than 10 is denoted as B) | B (a compound having 3 or more and less than 10 is denoted as B) | 2.7 nM |
| CCO[C@@H]1C[C@H]2C(=O)NC3(CCC3)C(=O)N(C)[C@@H](C3CCCC3)C(=O)N(CCC3CCCC3)[C@H](C(=O)N(C)C)CC(=O)N(C)[C@@H](CC)C(=O)N[C@@H]([C@@H](C)CC)C(=O)N(C)CC(=O)N(C)[C@H]3CCCCCN(C3=O)[C@@H](Cc3ccc(C(F)(F)F)cc3)C(=O)N(C)CC(=O)N[C@@H](CCc3cc(F)c(C(F)(F)F)c(F)c3)C(=O)N2C1 [PP0636] | A (a compound having 10 or more and less than 20 is denoted as A) | A (a compound having 10 or more and less than 20 is denoted as A) | 8.6 nM |
| CCO[C@@H]1C[C@H]2C(=O)NC3(CCC3)C(=O)N(C)[C@@H](C3CCCC3)C(=O)N(CCc3ccccc3)[C@H](C(=O)N(C)C)CC(=O)N(C)[C@@H](CC)C(=O)N[C@@H]([C@@H](C)CC)C(=O)N(C)CC(=O)N(C)[C@H]3CCCCCN(C3=O)[C@@H](Cc3ccc(C(F)(F)F)cc3)C(=O)N(C)CC(=O)N[C@@H](CCc3cc(F)c(C(F)(F)F)c(F)c3)C(=O)N2C1 [PP0637] | B (a compound having 3 or more and less than 10 is denoted as B) | B (a compound having 3 or more and less than 10 is denoted as B) | 23 nM |
| CCCN1C(=O)[C@H](C2CCCC2)N(C)C(=O)C2(CCC2)NC(=O)[C@@H]2C[C@@H](OCC)CN2C(=O)[C@H](CCc2cc(F)c(C(F)(F)F)c(F)c2)NC(=O)CN(C)C(=O)[C@H](Cc2ccc(C(F)(F)F)cc2)N2CCCCC[C@@H](C2=O)N(C)C(=O)CN(C)C(=O)[C@H]([C@@H](C)CC)NC(=O)[C@H](CC(C)C)N(C)C(=O)C[C@H]1C(=O)N1CCOCC1 [PP0639] | B (a compound having 3 or more and less than 10 is denoted as B) | B (a compound having 3 or more and less than 10 is denoted as B) | 8.5 nM |
| CCO[C@@H]1C[C@H]2C(=O)NC3(CCC3)C(=O)N(C)[C@@H](C3CCCC3)C(=O)N(CC)[C@H](C(=O)N(C)C)CC(=O)N(C)[C@@H](CC)C(=O)N[C@@H]([C@@H](C)CC)C(=O)N(C)CC(=O)N(C)[C@H]3CCCCN(C3=O)[C@@H](Cc3ccc(C(F)(F)F)cc3)C(=O)N(C)CC(=O)N[C@@H](CCc3cc(F)c(C(F)(F)F)c(F)c3)C(=O)N2C1 [PP0643] | B (a compound having 3 or more and less than 10 is denoted as B) | C (A compound having a KD ratio of 0.1 or more and less than 3 is denoted as C) | 0.074 nM |
| CCO[C@@H]1C[C@H]2C(=O)NC3(CCC3)C(=O)N(C)[C@@H](C3CCCC3)C(=O)N(CCC3CCC3)[C@H](C(=O)N(C)C)CC(=O)N(C)[C@@H](CC)C(=O)N[C@@H]([C@@H](C)CC)C(=O)N(C)CC(=O)N(C)[C@H]3CCCCN(C3=O)[C@@H](Cc3ccc(C(F)(F)F)cc3)C(=O)N(C)CC(=O)N[C@@H](CCc3cc(F)c(C(F)(F)F)c(F)c3)C(=O)N2C1 [PP0645] | B (a compound having 3 or more and less than 10 is denoted as B) | B (a compound having 3 or more and less than 10 is denoted as B) | 0.028 nM |
| CCO[C@@H]1C[C@H]2C(=O)NC3(CCC3)C(=O)N(C)[C@@H](C3CCCC3)C(=O)N(CCc3ccccc3)[C@H](C(=O)N(C)C)CC(=O)N(C)[C@@H](CC)C(=O)N[C@@H]([C@@H](C)CC)C(=O)N(C)CC(=O)N(C)[C@H]3CCCCN(C3=O)[C@@H](Cc3ccc(C(F)(F)F)cc3)C(=O)N(C)CC(=O)N[C@@H](CCc3cc(F)c(C(F)(F)F)c(F)c3)C(=O)N2C1 [PP0647] | B (a compound having 3 or more and less than 10 is denoted as B) | C (A compound having a KD ratio of 0.1 or more and less than 3 is denoted as C) | 0.68 nM |
